Patent US9988430B2, “Stable GLP-1 based GLP-1/glucagon receptor co-agonists” (Novo Nordisk A/S, priority 2014, dated 2018)
*1 amine or outer side, *2 acyl side, *3 side chain or, on linkers, in order; H or OH if unused. Where a SMILES comes first, the peptide text is derived from it. Side-chain parts run from the residue outwards. [ ]: non-standard residue; d: D form. The star is where a group is joined. C18 diacid = O=C(O)CCCCCCCCCCCCCCCCC(=O)*; γGlu = O=C(O)[C@H](CCC(=O)[*:2])N[*:1]; Desaminohistidyl = O=C(CCc1c[nH]cn1)*; AEEA = NCCOCCOCC(=O)O; Aib = CC(C)(N)C(=O)O

Legend:
[1] = biological target: T1, human GLP-1 receptor (Homo sapiens, UniProt P43220); assay: Assay (II)(a): GLP-1 receptor binding, [125I]GLP-1 displacement, SPA on BHK membranes; settings: displacement of [125I]GLP-1, membranes with human GLP-1 receptor; read-out: IC50 GLP-1R
T1 construct: expressed in transfected cells; host or cells: membranes of BHK cells, parent line BHKTS13, clone FCW467-12A
T1 sequence (P43220 24-463): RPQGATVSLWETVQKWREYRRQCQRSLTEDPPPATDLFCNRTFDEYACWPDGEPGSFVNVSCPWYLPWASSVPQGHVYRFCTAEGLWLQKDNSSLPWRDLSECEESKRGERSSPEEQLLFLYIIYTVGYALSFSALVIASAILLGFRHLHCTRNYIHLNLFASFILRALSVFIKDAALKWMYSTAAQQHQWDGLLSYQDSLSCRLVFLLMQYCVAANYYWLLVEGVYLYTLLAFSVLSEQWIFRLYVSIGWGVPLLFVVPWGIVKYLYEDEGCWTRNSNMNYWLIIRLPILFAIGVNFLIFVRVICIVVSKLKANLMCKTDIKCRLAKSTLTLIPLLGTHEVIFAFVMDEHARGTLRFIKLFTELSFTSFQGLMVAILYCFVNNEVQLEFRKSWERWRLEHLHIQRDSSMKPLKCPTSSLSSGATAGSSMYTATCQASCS
Outline: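 Membranes from BHK cells expressing human GLP-1 receptor with WGA SPA beads, [125I]GLP-1(7-36)NH2 (480 pM added solution) and compound in HEPES pH 7.4 buffer with EGTA, MgCl2, Tween 20. Incubated 2 h at 30° C; SPA counts fitted by non-linear regression to IC50 in nM.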

[2] = Assay (III): ThT fibrillation assay for physical stability; assay type: physicochemical; settings: pH 7.5, 10 mM HEPES buffer, 37° C., shaking 960 rpm
Text: Assay (III): ThT Fibrillation Assay for the Assessment of Physical Stability of Peptide Compositions
The purpose of this assay is to assess the physical stability of the GLP-1 derivatives of the invention in aqueous solutions.
Low physical stability of a peptide may lead to amyloid fibril formation, which is observed as well-ordered, thread-like macromolecular structures in the sample, which eventually may lead to gel formation. This has traditionally been measured by visual inspection of the sample. However, that kind of measurement is very subjective and depending on the observer. Therefore, the application of a small molecule indicator probe is much more advantageous. Thioflavin T (ThT) is such a probe and has a distinct fluorescence signature when binding to fibrils [Naiki et al. (1989) Anal. Biochem. 177, 244-249; LeVine (1999) Methods. Enzymol. 309, 274-284]. […]
Here, as depicted in FIG. 1, F is the ThT fluorescence at the time t. The constant t0 is the time needed to reach 50% of maximum fluorescence. The two important parameters describing fibril formation are the lag-time calculated by t0−2τ and the apparent rate constant kapp 1/τ. […]
Incubation at given temperature, shaking and measurement of the ThT fluorescence emission were done in a Fluoroskan Ascent FL fluorescence platereader (Thermo Labsystems). […]

IC50 [1]: 0.5 nM
ThT assay pH 7.5: Lag time [2]: 45.0 h
SMILES: CC[C@H](C)[C@H](NC(=O)[C@H](Cc1ccccc1)NC(=O)[C@H](CCC(=O)O)NC(=O)[C@H](CCCNC(=N)N)NC(=O)[C@H](C)NC(=O)[C@H](C)NC(=O)[C@H](CCC(N)=O)NC(=O)[C@H](CCCCNC(=O)CC[C@H](NC(=O)CC[C@H](NC(=O)COCCOCCNC(=O)COCCOCCNC(=O)CC[C@H](NC(=O)CCCCCCCCCCCCCCCCC(=O)O)C(=O)O)C(=O)O)C(=O)O)NC(=O)[C@H](CCC(=O)O)NC(=O)[C@H](CC(C)C)NC(=O)[C@H](Cc1ccc(O)cc1)NC(=O)[C@H](CCCCN)NC(=O)[C@H](CO)NC(=O)[C@@H](NC(=O)[C@H](CC(=O)O)NC(=O)[C@H](CO)NC(=O)[C@@H](NC(=O)[C@H](Cc1ccccc1)NC(=O)[C@@H](NC(=O)CNC(=O)[C@H](Cc1c[nH]cn1)NC(=O)C(C)(C)NC(=O)CCc1c[nH]cn1)[C@@H](C)O)[C@@H](C)O)C(C)C)C(=O)N[C@@H](C)C(=O)N[C@@H](Cc1c[nH]c2ccccc12)C(=O)N[C@@H](CC(C)C)C(=O)N[C@@H](CC(C)C)C(=O)N[C@@H](CCCCN)C(=O)NCC(=O)NCC(=O)NCC(=O)O [Example 13, N^ε22-[(4S)-4-carboxy-4-[[(4S)-4-carboxy-4-[[2-[2-[2-[[2-[2-[2-[[(4S)-4-carboxy-4-(17-carboxyheptadecanoylamino)butanoyl]amino]ethoxy]ethoxy]acetyl]amino]ethoxy]ethoxy]acetyl]amino]butanoyl]amino]butanoyl]-[Imp7,Aib8,His9,Lys18,Lys22,Arg26,Leu33,Gly36]-GLP-1-(7-37)-peptide] (Desaminohistidyl-[Aib]HGTFTSDVSKYLEK([γGlu-γGlu-AEEA-AEEA-γGlu-C18 diacid])QAAREFIAWLLKGGG-OH)
